The IC50 is the concentration that inhibits the measured activity by half. A high value points to weaker potency.

The target of assay [1] is T1, human A2A adenosine receptor (Homo sapiens, UniProt P29274).
T1 construct: expressed in transfected cells; host or cells: HEK293 or CHO cells
The assay is described as follows: A2A binding affinity, Method (A): radioligand filtration binding with [3H]SCH58261. Particulars: membranes of HEK293 or CHO cells expressing the human receptor. The text has this:
Method (A) describes the procedure used to measure A2A binding affinity using radioligand binding. Method (B) describes the procedure used to measure A2A binding affinity using SPA technology. The method used to measure A2B binding affinity is also described below. The method used to determine the A2A IC50 value reported for each compound in the table is indicated next to the reported value. The A2B IC50 value measured using the A2B binding affinity assay is shown in the table next to the compound under the corresponding A2A value.
The A2A receptor affinity binding assay measured the amount of binding of a tritiated ligand with high affinity for the A2A adenosine receptor to membranes made from HEK293 or CHO cells recombinantly expressing the human A2A adenosine receptor, in the presence of varying concentrations of a compound of the invention. The data were generated using either filtration binding or a homogenous scintillation proximity assay (SPA).
Method (A): Measurement of A2A Binding Affinity Using Radioligand Binding
148 µL (5 µg/mL) membranes (Perkin Elmer, Cat. No. RBHA2aM400UA) and 2 µL compounds of the invention to be tested (test compound) were transferred to individual wells of a 96-well polypropylene assay plate and incubated for 15 to 30 min at room temperature. [^3H] SCH58261 ((7-(2-phenylethyl)-5-amino-2-(2-furyl)-pyrazolo-[4,3-e]-1,2,4-triazolo[1,5-c]pyrimidine)) was diluted in assay buffer (50 mM Tris pH 7.4, 10 mM MgCl2, 0.005% Tween20) to a concentration of 4 nM and 50 µL transferred to each well of the assay plate. To define total and non-specific binding, wells containing 1% DMSO and 1 µM ZM241385 (Tocris Bioscience, Cat. No. 1036) respectively, were also included. The assay plate was incubated at room temperature for 60 min with agitation. Using a FilterMate Harvester® (Perkin Elmer), the contents of the assay plate were filtered through a UniFilter-96® PEI coated plate (Perkin Elmer Cat. No. 6005274 or 6005277). Filtering was achieved by aspirating the contents of the assay plate for 5 sec, then washing and aspirating the contents three times with ice-cooled wash buffer (50 mM Tris-HCl pH 7.4, 150 mM NaCl) and allowing the vacuum manifold to dry the plate for 30 sec. The filter plate was incubated for at least 1 h at 55° C. and allowed to dry. The bottom of the filter plate was sealed with backing tape. 40 µL Ultima Gold™ (Perkin Elmer, Cat. No. 6013329) was added to each well of the filter plate and the top of the plate was sealed with TopSeal-A PLUS® clear plate seal (Perkin Elmer, Cat. No. 6050185). The plate was incubated for at least 20 min, and then the amount of radioactivity remaining in each well was determined using a TopCount® (Perkin Elmer) scintillation counter. After normalization to total and non-specific binding, the percent effect at each compound concentration was calculated. The plot of percent effect versus the log of compound concentration was analyzed electronically using a 4-parameter logistic fit based on the Levenberg-Marquardt algorithm to generate IC50 values.

For assay [2], the target named is T1, human A2A adenosine receptor. As to the kind of experiment: A2A binding affinity, Method (B): scintillation proximity assay (SPA) with [3H]SCH58261. As to conditions: membranes of HEK293 or CHO cells expressing the human receptor. The essentials:
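Membranes from HEK293 or CHO cells expressing the receptor were pretreated with 20 µg/mL adenosine deaminase for 15 min, then bound to WGA SPA beads. [3H]SCH58261 was added at 1.25 nM in Ca/Mg-free DPBS with 10 mM MgCl2, incubated 1 h at RT, then settled 1 h. Non-specific binding used 1 µM CGS 15943. IC50 came from 4-parameter logistic fits.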
A general note: In a scintillation proximity assay essentially only radioactivity close to the scintillant gives light.

T1 sequence (P29274 whole entry): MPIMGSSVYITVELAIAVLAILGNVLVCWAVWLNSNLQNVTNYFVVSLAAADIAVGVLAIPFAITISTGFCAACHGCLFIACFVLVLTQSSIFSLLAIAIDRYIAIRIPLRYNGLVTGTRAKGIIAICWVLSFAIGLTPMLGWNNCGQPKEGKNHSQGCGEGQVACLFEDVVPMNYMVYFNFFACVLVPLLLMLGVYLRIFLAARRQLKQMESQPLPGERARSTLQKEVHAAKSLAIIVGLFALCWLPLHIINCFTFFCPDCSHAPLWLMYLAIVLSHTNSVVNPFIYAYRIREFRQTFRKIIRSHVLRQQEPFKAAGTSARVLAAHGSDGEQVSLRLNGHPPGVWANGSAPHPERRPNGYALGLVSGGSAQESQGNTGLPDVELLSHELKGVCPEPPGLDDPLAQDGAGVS

For `COc1cccc2c1nc(N)n1nc(CNC(=O)c3ccc(S(N)(=O)=O)cc3)nc21` [Example 4.10, N-((5-amino-7-methoxy-[1,2,4]triazolo[1,5-c]quinazolin-2-y1)methyl)-4-sulfamoylbenzamide], the half-maximal inhibitory concentration (IC50) in assay [1] was determined as 636 nM. In other words, the sub-micromolar range.
Same read-out and setting: then `COc1cc(F)cc2c1nc(N)n1nc(CNC(=O)c3ccc(C(C)(C)O)cc3Cl)nc21` [Entry 3.5], with 2.5 nM; and `COc1cccc2c1nc(N)n1nc(CCNC34CC(C(C)(C)O)(C3)C4)nc21` [Example 22.2, 2-(3-((2-(5-amino-7-methoxy-[1,2,4]triazolo[1,5-c]quinazolin-2-yl)ethyl)amino)bicyclo[1.1.1]pentan-1-yl)propan-2-ol], with 12.3 nM.
Turning to `COc1cc(F)cc2c1nc(N)n1nc(CNC(c3ccc(C(C)(C)O)cc3)C(F)(F)F)nc21` (single isomer, unassigned) [Example 25.3A, (S or R)-2-(4-(1-(((5-amino-9-fluoro-7-methoxy-[1,2,4]triazolo[1,5-c]quinazolin-2-yl)methyl)amino)-2,2,2-trifluoroethyl)phenyl)propan-2-ol], in assay [1], the IC50 was 19.3 nM.
For the molecule `COc1cc(F)cc2c1nc(N)n1nc(CCN3Cc4cnc(C(C)C)n4CC3=O)nc21` [Example 26.3, 7-(2-(5-amino-9-fluoro-7-methoxy-[1,2,4]triazolo[1,5-c]quinazolin-2-yl)ethyl)-3-isopropyl-7,8-dihydroimidazo[1,5-a]pyrazin-6(5H)-one], the IC50 in assay [1] was 6.4 nM.
As for `COc1cccc2c1nc(N)n1nc(CNC(=O)c3c(C)cc(C(C)(C)O)cc3C)nc21` [Entry 1.3], in assay [1], the IC50 came to 10.2 nM.
As for `COc1cccc2c1nc(N)n1nc(CNC(=O)c3ccc(C(C)(C)O)cn3)nc21` [Example 4.2, N-((5-amino-7-methoxy-[1,2,4]triazolo[1,5-c]quinazolin-2-yl)methyl)-5-(2-hydroxypropan-2-yl)picolinamide], the IC50 in assay [1] came out at 1.4 nM.
Still for that read-out and setting: then `COc1cccc2c1nc(N)n1nc(CN(C)Cc3ccc(S(N)(=O)=O)cc3)nc21` [Example 9.2, 4-((((5-amino-7-methoxy-[1,2,4]triazolo[1,5-c]quinazolin-2-yl)methyl)(methyl)amino)methyl)benzenesulfonamide], with 2.5 nM; and `COc1cccc2c1nc(N)n1nc(CCN(C)c3cnn(C)c3)nc21` [Example 24.4, 7-methoxy-2-(2-(methyl(1-methyl-1H-pyrazol-4-yl)amino)ethyl)-[1,2,4]triazolo[1,5-c]quinazolin-5-amine], with 0.9 nM.
Same read-out and setting: the same measure for `COc1cccc2c1nc(N)n1nc(CN3CC(c4ccncc4)C3)nc21` [Example 11.14, 7-methoxy-2-((3-(pyridin-4-yl)azetidin-1-yl)methyl)-[1,2,4]triazolo[1,5-c]quinazolin-5-amine]: 9.1 nM; for `COc1cccc2c1nc(N)n1nc(CNC3CCc4c(nnn4C4CC(F)(F)C4)C3)nc21` (single isomer, unassigned) [Example 11.2A, (S or R)-2-(((1-(3,3-difluorocyclobutyl)-4,5,6,7-tetrahydro-1H-benzo[d][1,2,3]triazol-5-yl)amino)methyl)-7-methoxy-[1,2,4]triazolo[1,5-c]quinazolin-5-amine]: 0.6 nM; for `COc1cccc2c1nc(N)n1nc(CN3CC(n4cccn4)C3)nc21` [Example 11.12, 2-((3-(1H-pyrazol-1-yl)azetidin-1-yl)methyl)-7-methoxy-[1,2,4]triazolo[1,5-c]quinazolin-5-amine]: 3.7 nM.
Still for that read-out and setting: the same measure for `COc1cccc2c1nc(N)n1nc(CN3CCO[C@@H](Cc4ccccc4)C3)nc21` [Example 8.1, (S)-2-((2-benzylmorpholino)methyl)-7-methoxy-[1,2,4]triazolo[1,5-c]quinazolin-5-amine]: 6 nM; for `COc1cccc2c1nc(N)n1nc(CNC(=O)c3ncc(C(C)(C)O)cc3Br)nc21` [Example 4.11, N-((5-amino-7-methoxy-[1,2,4]triazolo[1,5-c]quinazolin-2-yl)methyl)-3-bromo-5-(2-hydroxypropan-2-yl)picolinamide]: 1.5 nM.
Regarding `COc1cc(F)cc2c1nc(N)n1nc(CNC(c3ccc(C(C)(C)O)cc3)C(F)(F)F)nc21` (single isomer, unassigned) [Example 25.3B, (R or S)-2-(4-(1-(((5-amino-9-fluoro-7-methoxy-[1,2,4]triazolo[1,5-c]quinazolin-2-yl)methyl)amino)-2,2,2-trifluoroethyl)phenyl)propan-2-ol], in assay [1], the IC50 was 29.2 nM.
Same read-out and setting: the same measure for `COc1cc(F)cc2c1nc(N)n1nc(CNC(C)(C)c3ccc(C(C)(C)O)cc3)nc21` [Example 11.9, 2-(4-(2-(((5-amino-9-fluoro-7-methoxy-[1,2,4]triazolo[1,5-c]quinazolin-2-yl)methyl)amino)propan-2-yl)phenyl)propan-2-ol]: 1.1 nM.
`COc1cccc2c1nc(N)n1nc(CN(C)C(=O)c3ccc(C(C)(C)O)cc3)nc21` [Example 1.2, N-((5-amino-7-methoxy-[1,2,4]triazolo[1,5-c]quinazolin-2-yl)methyl)-4-(2-hydroxypropan-2-yl)-N-methylbenzamide] displayed an IC50 in assay [1] of 0.3 nM.
Regarding `COc1cccc2c1nc(N)n1nc(CNC(=O)c3ccc(C(O)(C(F)(F)F)C(F)(F)F)cc3)nc21` [Example 2.6, N-((5-amino-7-methoxy-[1,2,4]triazolo[1,5-c]quinazolin-2-yl)methyl)-4-(1,1,1,3,3,3-hexafluoro-2-hydroxypropan-2-yl)benzamide], in assay [1], the IC50 turned out to be 0.3 nM.
The same measure, in the same setting: the same measure for `COc1cccc2c1nc(N)n1nc(CNC(=O)c3ccc(C(C)(C)O)cc3)nc21` [Example 2.1, N-((5-amino-7-methoxy-[1,2,4]triazolo[1,5-c]quinazolin-2-yl)methyl)-4-(2-hydroxypropan-2-yl)benzamide]: 0.6 nM.
With `COc1cccc2c1nc(N)n1nc(CN[C@H](C)c3ccc(C(F)(F)F)cc3)nc21` [Example 8.2, (R)-7-methoxy-2-(((1-(4-(trifluoromethyl)phenyl)ethyl)amino)methyl)-[1,2,4]triazolo[1,5-c]quinazolin-5-amine], the IC50 in assay [2] stood at 22.4 nM. In other words, the double-digit nanomolar range.
The same measure, in the same setting: then `COc1cccc2c1nc(N)n1nc(CN(C)CCc3ccc(C(F)(F)F)cc3)nc21` [Example 15.13, 7-methoxy-2-((methyl(4-(trifluoromethyl)phenethyl)amino)methyl)-[1,2,4]triazolo[1,5-c]quinazolin-5-amine], with 7.9 nM; and `COc1cccc2c1nc(N)n1nc(CNCC3(c4cccc(F)c4)CCOCC3)nc21` [Example 10.14, 2-((((4-(3-fluorophenyl)tetrahydro-2H-pyran-4-yl)methyl)amino)methyl)-7-methoxy-[1,2,4]triazolo[1,5-c]quinazolin-5-amine], with 6.4 nM.
On to `COc1cccc2c1nc(N)n1nc(CN(Cc3cccnc3)CC3CC3)nc21` [Example 16.2, 2-(((cyclopropylmethyl)(pyridin-3-ylmethyl)amino)methyl)-7-methoxy-[1,2,4]triazolo[1,5-c]quinazolin-5-amine], for which the IC50 in assay [2] is 5.3 nM.
On the same count and under the same terms, then `COc1cccc2c1nc(N)n1nc(CN(Cc3ccc(OC(F)(F)F)cc3)CC3CCC3)nc21` [Example 15.10, 2-(((cyclobutylmethyl)(4-(trifluoromethoxy)benzyl)amino)methyl)-7-methoxy-[1,2,4]triazolo[1,5-c]quinazolin-5-amine], with 8.5 nM; and `COc1cccc2c1nc(N)n1nc(CNCC3CC3)nc21` [Example 10.12, 2-(((cyclopropylmethyl)amino)methyl)-7-methoxy-[1,2,4]triazolo[1,5-c]quinazolin-5-amine], with 27.3 nM.
In the case of `COc1cccc2c1nc(N)n1nc(CCNCC(F)(F)C(F)(F)F)nc21` [Example 22.8, 7-methoxy-2-(2-((2,2,3,3,3-pentafluoropropyl)amino)ethyl)-[1,2,4]triazolo[1,5-c] quinazolin-5-amine], the IC50 in assay [2] was determined as 10.9 nM.
